Results on four molecules are retold here after ChEMBL document CHEMBL1150805, “New cytotoxic isomalabaricane triterpenes from the sponge Jaspis species” (J Nat Prod, 2001).

In one test the test system is MOLT-4. Description: Antiproliferative activity against human MOLT4 cells. In kind it is functional, cell-based.
The next test relates to Malme-3M. Description: Antiproliferative activity against human MALME-3M cells. In kind it is functional, cell-based.

As a reminder, the IC50 is the midpoint of a concentration-inhibition curve. As to `CC(=O)O[C@@H](CC=C(C)C)/C(C)=C/C=C/C(C)=C1\C(=O)C[C@H]2[C@@]3(C)CC[C@@H](O)[C@](C)(CO)[C@@H]3CC[C@]12C` (mixture of isomers), the IC50 with MOLT-4 worked out at 4.11 µg/mL; with Malme-3M, 0.23 µg/mL.
Taken in the same sequence, the figures for `CC(=O)O[C@H]1CC[C@@]2(C)[C@@H](CC[C@]3(C)/C(=C(C)/C=C/C=C(\C)[C@@H](O)CC=C(C)C)C(=O)C[C@@H]23)[C@@]1(C)CO` (mixture of isomers) were 1.62 µg/mL and 0.11 µg/mL.
Taken in the same sequence, the figures for `CC(=O)O[C@@H](CC=C(C)C)/C(C)=C/C=C/C(C)=C1\C(=O)C[C@H]2[C@@]3(C)CC[C@@H](OC(C)=O)[C@](C)(CO)[C@@H]3CC[C@]12C` (mixture of isomers) were 16.6 µg/mL and 1.2 µg/mL.
Turning to `CC(=O)O[C@@H](CC=C(C)C)/C(C)=C/C=C/C(C)=C1\C(=O)C[C@H]2[C@@]3(C)CC[C@H](OC(C)=O)[C@](C)(CO)[C@@H]3CC[C@]12C` (mixture of isomers), the IC50 with MOLT-4 was 19.5 µg/mL; with Malme-3M, 2.27 µg/mL.
